Data on one molecule can be found in PMC4701221, “Novel Promising Estrogenic Receptor Modulators: Cytotoxic and Estrogenic Activity of Benzanilides and Dithiobenzanilides” (PLoS ONE, 2016).

In assay [1] the test system is MDA-MB-231 cells. Put plainly: Sulphorodamine B assay, MDA-MB-231. The format is cell-based, human. The following applies: 72 h, Fig 2. The procedure:
In addition to the MTT assay, cell viability was measured by the Sulphorodamine B assay according to Vichai and Kirtikara. The MCF-7 and MDA-MB-23 cells were seeded and treated as for the MTT assay. After incubation the medium was removed and the cells were fixed with cold (4°C) trichloroacetic acid (final concentration 10%) for 1h. Than plates were washed 4 times with water and stained for 30 min, following by staining with sulforhodamine B (SRB) 0.4% in 1% acetic acid solution at room temperature for 20 min. After staining, the SRB solution was removed and the plates washed 5 times with 1% acetic acid dried. Bound SRB was solubilized with 200 μl 10 mM unbuffered Tris-base solution and plates were shaked for 10 min. The absorbance at 510 nm was measured using a plate reader (Biotek Instruments, Elx-800).

The next assay concerns A549 cells. Put plainly: MTT assay, A549. In kind it is cell-based. The conditions noted are these: Homo sapiens, 72 h, lung adenocarcinoma, read-out: Cytotoxic activity IC50, A549. The procedure:
(§1) The cell lines used in the cytotoxicity study, besides MCF-12A, were purchased from European Collection of Cell Culture (ECACC, Salisbury, UK): HEK293 (human embryonic kidney, ATTC no. CRL-1573), A549 (Human lung carcinoma, ECACC no. 86012804), CCD39Lu (Human lung fibroblasts, ECACC no. 90110512), MCF-7 (Human breast adenocarcinoma, ECACC no. 86012803) and MDA-MB-231 (Human breast adenocarcinoma ECACC no. 92020424). Cell lines were cultured in DMEM medium without phenol red and supplemented with 10% (v/v) FBS, 1% penicillin-streptomycin and 1% L-glutamine. MCF-12A (ATTC no. […]) was purchased from American Type Culture Collection (ATCC Manassas, VA 20110 USA). MCF-12A cells were kept in 1:1 mixture of Dulbecco’s modified Eagle’s medium and Ham’s F12 medium, 20 ng/ml human epidermal growth factor, 100 ng/ml cholera toxin, 0.01 mg/ml bovine insulin, 500 ng/ml hydrocortisone and 5% horse serum. All cell lines were cultured at 37°C, in a humidified atmosphere containing 5% CO2.
(§2) Compounds were dissolved in DMSO to the final concentration of […]. A549, CCD39Lu, MCF-7, MDA-MB-231 and MCF-12A cells were seeded in 96 wells plates at density 2x10^4 cells/well and incubated overnight as described above. Subsequently, cells were treated with tested compounds at concentrations: 100 μM; 50 μM; 25μM; 12.5μM; 6 μM; 3 μM; 1.5 μM. […] Cells were incubated 72 h at 37°C in a humidified atmosphere containing 5% CO2 in the cell culture media appropriate for each cell line. Then, the medium was aspirated and 170 μl MTT solution (5mg/ml) was added to each well. Plates were incubated for 2 hours at 37°C, and then plates were centrifuged at 1200 rpm for 3 minutes. The formazan crystals were dissolved in 200 μl DMSO and plates were further agitated on a plate shaker at 300–500 rpm for 10 minutes. Absorbance at 570 nm (with reference wavelenght 650 nm) was measured using a plate reader (Biotek Instruments, Elx-800). Cell viability was calculated as a percentage relative to the control.
A general note: Formazan colour is commonly taken as a measure of viable cells.

In the next assay the target is T1, human ERα receptor (Homo sapiens, UniProt P03372).
T1 construct: host or cells: HEK293
T1 sequence (P03372 1-595): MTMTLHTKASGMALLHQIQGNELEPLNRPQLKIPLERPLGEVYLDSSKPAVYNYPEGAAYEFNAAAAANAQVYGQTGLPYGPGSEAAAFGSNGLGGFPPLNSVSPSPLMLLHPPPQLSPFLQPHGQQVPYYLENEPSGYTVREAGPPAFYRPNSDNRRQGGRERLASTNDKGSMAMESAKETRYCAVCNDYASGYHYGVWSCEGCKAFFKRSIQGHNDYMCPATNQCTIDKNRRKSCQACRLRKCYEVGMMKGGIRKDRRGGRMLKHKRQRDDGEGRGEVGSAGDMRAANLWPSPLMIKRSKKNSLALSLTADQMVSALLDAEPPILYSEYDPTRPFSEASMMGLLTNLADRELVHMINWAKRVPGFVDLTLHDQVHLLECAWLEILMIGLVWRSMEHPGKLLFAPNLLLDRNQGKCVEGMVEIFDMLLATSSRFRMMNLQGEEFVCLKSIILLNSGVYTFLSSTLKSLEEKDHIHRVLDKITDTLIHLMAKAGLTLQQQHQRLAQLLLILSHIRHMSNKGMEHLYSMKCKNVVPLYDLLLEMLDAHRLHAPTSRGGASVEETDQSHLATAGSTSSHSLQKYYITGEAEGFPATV
Put plainly: Estrogen Receptor luciferase assay in HEK293 cells transfected with ERα. The following applies: HEK293 transfected with ERα and luciferase reporter, compared with estradiol, Fig 3A/3B. In kind it is cell-based. An excerpt:
To obtain a eukaryotic vector expressing only the ER-α nuclear receptor, a construct was designed by cloning a KpnI-BamHI fragment from plasmid pEGFP-C1-ERα containing the ERα coding sequence that includes a stop signal into the pEGFP-N3 plasmid (Clontech Laboratories, Palo Alto, CA) under the control of the CMV promoter. This construction was termed pEGFP-N-ERα, and although it encoded both human ERα receptor and GFP protein, only the former is expressed. For mock transfections, pEGFP-N3 plasmid was digested with BglII and NotI and religated after polishing DNA ends to remove GFP coding sequence. Plasmid sequence was confirmed by automatic sequencing. Prior to transfection, cells were seeded in 48 well plates at density of 1.5 x 10^4 cells/well and incubated for 24 h to reach a cell confluence of 80–90%. […] MCF-7 cells, which endogenously express ERα receptor, were transfected with p3xERRE/ERE-luciferase plus the pRLTK Renilla luciferase control plasmid (95:5). Firefly and Renilla luciferase activities were measured using the Dual Luciferase Assay System (Promega, Madison, WI, USA), following a standard protocol using a Sirius L luminometer (Berthold Technologies, Bad Wildbad, Germany). Data were expressed as relative changes in luciferase activity and normalized to 100%.
(In general: Reporter assays use an easily measured gene product as a stand-in for the process of interest.)

Another assay has as its system MCF-7 cells. Put plainly: MTT assay, MCF-7. In kind it is cell-based, human. The protocol:
as §1, §2

Assay [2] has as its system MDA-MB-231 cells. Put plainly: LDH release assay, MDA-MB-231. The format is cell-based, human. The conditions noted are these: 72 h, Fig 2. The procedure: Cytotoxicity was evaluated by measuring the cell membrane permeability, using a LDH assay kit purchased from Cayman Chemical (Ann Arbor USA). The LDH assay was performed for MCF-7 and MDA-MB-231 cells (seeded at 2×10^4 density). As a positive control cell permeabilization with 1%Triton X-100 was used. The assay was performed 72h after start the incubation. Briefly, the plates were centrifuged at 400 ×g for 5 minutes, and 100 μL of supernatant were transferred from each well to the new 96-well plate and analyzed according to the manufacturer’s protocol. 100 μL of reaction mixture, containing lactic acid, NAD^+, tetrazolium salt and diaphorase, was added to each well. Plates were incubated on an orbital shaker for 30 minutes at room temperature and the absorbance at 490 nm was measured with a plate reader (Biotek Instruments, Elx-800). Results were expressed as a percentage of the total value of the positive control.
A general note: Release of lactate dehydrogenase indicates damage to the cell membrane.

SMILES strings stand for the structures. “Also recorded” adds a separate entry of the source.

Take `Fc1ccc(NC(=S)c2ccc(NC(=S)c3ccc(F)cc3)cc2)cc1` [Compound 18]: in the assay with MDA-MB-231 cells [1], the “Effect in SRB assay, MDA-MB-231” value is “non-significant effects”. Further, the 50% inhibitory concentration (IC50) (commonly the concentration needed to halve the response being measured) in the assay on A549 cells was more than 100 µM; in the assay on MCF-7 cells (Homo sapiens, MCF7, 72 h, estrogen dependent breast adenocarcinoma, read-out: Cytotoxic activity IC50, MCF-7), 5.07 µM. Besides, on human ERα receptor, the “ER dependent transcriptional activity” value was “capable to mediate ER dependent transcriptional activity in a similar mode than estradiol; also recorded: higher transcriptional activity at all assayed concentrations compared with estradiol”. Besides, the “Activity in MTT assay (in words), MCF-7” value in the assay with MCF-7 cells (72 h) was “significant activity; also recorded: strong effect”. Moreover, in the assay on MDA-MB-231 cells [2], the “LDH release, MDA-MB-231” value is recorded as “non-significant effects”.
